Tests used:
Crenolanib + Vorinostat = compound: CC1(COc2ccc3c(c2)ncn3-c2ccc3cccc(N4CCC(N)CC4)c3n2)COC1 [Crenolanib] + O=C(CCCCCCC(=O)Nc1ccccc1)NO [Vorinostat] (partner 1 µM); assay: relative viability (nuclei count vs DMSO), 5 days (fraction); higher = more cells survive
Method in brief: (§1)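 Lung cancer cell lines, seeded in 1536-well plates, were treated the following day by pin tool with a single drug or with five library-drug doses (not always all listed) in √10 steps on top of a fixed anchor-drug dose. Cells were fixed and nuclei stained in one step after 5 days, and nuclei were counted. Relative viability is the nuclei count for treated wells divided by that for vehicle wells, reported as medians of duplicate plates.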

Crenolanib + AZD7762 = compound: CC1(COc2ccc3c(c2)ncn3-c2ccc3cccc(N4CCC(N)CC4)c3n2)COC1 [Crenolanib] + NC(=O)Nc1cc(-c2cccc(F)c2)sc1C(=O)N[C@H]1CCCNC1 [AZD7762] (partner 0.2 µM); assay: as above
Method in brief: as §1

Row | Cell Line | relative viability (Crenolanib + Vorinostat; first compound 0.01 µM) | relative viability (Crenolanib + Vorinostat; first compound 0.03162 µM) | relative viability (Crenolanib + Vorinostat; first compound 0.1 µM) | relative viability (Crenolanib + Vorinostat; first compound 0.3162 µM) | relative viability (Crenolanib + Vorinostat; first compound 1 µM) | relative viability (Crenolanib + AZD7762; first compound 0.01 µM) | relative viability (Crenolanib + AZD7762; first compound 0.03162 µM) | relative viability (Crenolanib + AZD7762; first compound 0.1 µM) | relative viability (Crenolanib + AZD7762; first compound 0.3162 µM) | relative viability (Crenolanib + AZD7762; first compound 1 µM)
1 | NCI-H647 | 0.631 | 0.66 | 0.366 | 0.679 | 0.722 | 0.616 | 0.497 | 0.448 | 0.481 | 0.424
2 | NCI-H650 | 0.408 | 0.42 | 0.468 | 0.368 | 0.417 | 1.06 | 0.975 | 1.01 | 0.864 | 0.936
3 | NCI-H661 | 0.772 | 0.778 | 0.813 | 0.845 | 0.846 |  |  |  |  | 
4 | NCI-H727 | 1.35 | 1.31 | 1.06 | 1.32 | 1.07 | 0.702 | 0.445 | 0.546 | 0.671 | 0.587
5 | NCI-H838 | 0.747 | 0.74 | 0.698 | 0.722 | 0.738 | 0.883 | 0.977 | 0.886 | 0.924 | 0.901
6 | NCI-H1355 | 0.661 | 0.674 | 0.626 | 0.706 | 0.481 | 0.729 | 0.89 | 0.705 | 0.732 | 0.653
7 | NCI-H1395 | 0.766 | 0.601 | 0.96 | 0.689 | 0.695 | 0.374 | 0.392 | 0.412 | 0.457 | 0.473
8 | NCI-H1437 | 0.843 | 0.868 | 0.781 | 0.857 | 0.628 | 1.15 | 1.18 | 1.07 | 1.19 | 1.14
9 | NCI-H1648 | 0.599 |  | 0.293 | 0.466 | 0.433 | 0.666 |  | 0.673 | 0.673 | 0.745
10 | NCI-H1650 | 0.454 | 0.516 | 0.582 | 0.812 | 0.676 |  |  |  |  | 
11 | NCI-H1651 | 0.604 | 0.488 | 0.583 | 0.51 | 0.538 | 0.49 | 0.399 | 0.434 | 0.472 | 0.558
12 | NCI-H1666 | 1.1 | 1.01 | 0.991 | 1.09 | 1.06 | 0.928 | 0.831 | 0.761 | 0.905 | 0.889
13 | NCI-H1703 |  |  |  |  |  | 0.143 | 0.131 | 0.114 | 0.116 | 0.113
14 | NCI-H1734 | 0.852 | 0.801 | 0.786 | 0.946 | 0.757 | 0.569 | 0.61 | 0.567 | 0.756 | 0.659
15 | NCI-H1755 | 0.739 | 0.941 | 0.662 | 0.903 | 0.832 | 0.423 | 0.468 | 0.362 | 0.529 | 0.484
16 | NCI-H1792 |  |  |  |  |  | 0.701 | 0.686 | 0.656 | 0.834 | 0.754
17 | NCI-H1793 | 0.8 | 0.741 | 0.698 | 0.863 | 0.698 | 0.549 | 0.794 | 0.538 | 0.366 | 0.645
18 | NCI-H1915 | 0.529 | 0.516 | 0.487 | 0.511 | 0.459 | 0.745 | 0.74 | 0.688 | 0.793 | 0.585
19 | NCI-H1944 | 0.586 | 0.591 | 0.491 | 0.693 | 0.4 | 0.551 | 0.587 | 0.534 | 0.605 | 0.497
20 | NCI-H1975 | 0.729 | 0.684 | 0.638 | 0.71 | 0.678 | 0.741 | 0.732 | 0.629 | 0.639 | 0.712

Row | Cell Line | relative viability (Crenolanib + Vorinostat; first compound 0.01 µM) | relative viability (Crenolanib + Vorinostat; first compound 0.03162 µM) | relative viability (Crenolanib + Vorinostat; first compound 0.1 µM) | relative viability (Crenolanib + Vorinostat; first compound 0.3162 µM) | relative viability (Crenolanib + Vorinostat; first compound 1 µM) | relative viability (Crenolanib + AZD7762; first compound 0.01 µM) | relative viability (Crenolanib + AZD7762; first compound 0.03162 µM) | relative viability (Crenolanib + AZD7762; first compound 0.1 µM) | relative viability (Crenolanib + AZD7762; first compound 0.3162 µM) | relative viability (Crenolanib + AZD7762; first compound 1 µM)
21 | NCI-H1993 | 0.956 | 0.728 | 0.777 | 0.797 | 0.729 | 0.843 | 0.802 | 0.889 | 0.974 | 0.688
22 | NCI-H2009 | 0.847 | 0.73 | 0.692 | 0.697 | 0.7 |  |  |  |  | 
23 | NCI-H2023 | 0.705 | 0.531 | 0.617 | 0.813 | 0.634 |  |  |  |  | 
24 | NCI-H2085 |  | 0.764 | 0.809 | 0.781 | 0.759 |  | 0.983 | 0.997 | 0.972 | 1
25 | NCI-H2087 | 0.657 | 0.779 | 0.968 | 0.664 | 0.877 | 1.33 | 1.18 | 1.39 | 1.6 | 1.34
26 | NCI-H2126 | 0.8 | 0.836 | 0.691 | 0.815 | 0.684 | 1.07 | 1.05 | 0.927 | 1.05 | 0.973
27 | NCI-H2170 | 0.793 | 0.928 | 0.697 | 0.985 | 0.793 | 0.941 | 0.852 | 0.897 | 0.934 | 0.852
28 | NCI-H2228 | 0.721 | 0.768 | 0.633 | 0.687 | 0.871 |  |  |  |  | 
29 | NCI-H2342 | 0.729 | 0.682 | 0.688 | 0.788 | 0.691 | 0.607 | 0.475 | 0.475 | 0.532 | 0.484
30 | NCI-H2347 | 0.629 | 0.807 | 0.383 | 0.707 | 0.645 | 0.815 | 0.772 | 0.678 | 0.818 | 0.85
31 | NCI-H2405 | 1.03 |  | 0.93 | 1.12 | 0.706 | 0.801 |  | 0.554 | 0.773 | 0.646
32 | NCI-H3122 | 0.976 | 0.938 | 0.765 | 1.14 | 0.796 | 1.02 | 0.958 | 1.02 | 1.04 | 0.996
33 | PC-3 [JPC-3] | 0.75 |  | 0.824 | 0.7 | 0.582 | 0.761 |  | 0.832 | 0.78 | 0.752
34 | PC-14 | 0.95 | 0.678 | 0.704 | 0.875 | 0.633 | 0.39 | 0.305 | 0.36 | 0.281 | 0.328
35 | RERF-LC-KJ | 0.759 | 0.707 | 0.664 | 0.689 | 0.711 | 1.19 | 0.739 | 0.896 | 0.894 | 1.04
36 | SK-LU-1 | 0.735 | 0.863 | 0.603 | 0.811 | 0.795 |  |  |  |  | 
37 | SK-MES-1 | 1.15 | 1.16 | 0.954 | 1.1 | 1.05 |  |  |  |  | 
38 | SW 1573 | 0.961 | 0.624 | 0.995 | 0.929 | 0.606 |  |  |  |  | 
39 | UMC-11 | 0.383 | 0.453 | 0.389 | 0.363 | 0.374 |  |  |  |  | 

Source: the supplement of paper PMC10307832
